# Experimental data from US20230265116A1, “DEGRADATION OF (EGFR) BY CONJUGATION OF EGFR INHIBITORS WITH E3 LIGASE LIGAND AND METHODS OF USE” (BEIGENE, LTD., priority 2020, published 2023).
# Like-named read-outs stand apart in the source and are kept apart here.
# Assays:
# Format in all cases: cell-based
# [1] = target: T1, EGFR L858R/T790M/C797S (BaF3-LTC cells) (Homo sapiens, UniProt P00533, C797S/L858R/T790M); assay: EGFR degradation HTRF assay, BaF3-LTC cells; details: for Dmax: maximum percentage of degradation, read-out: LTC Dmax (%)
# T1 construct: expressed in transfected cells; host or cells: BaF3
# In short: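 EGFR remaining after a 16 h, 37 °C exposure (8 doses, 5-fold steps from 10 uM final, 0.2% DMSO) was quantified by HTRF antibodies in cell lysate. Percent inhibition relative to DMSO control was fitted by four-parameter logistic to give DC50; Dmax denotes maximal degradation.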
# [2] = test system: EGFR Del19/T790M/C797S (H1975-clone #28); assay: EGFR degradation HTRF assay, H1975-clone #28 DTC cells; details: H1975 # 28 DTC cells; for DC50: EGFR degradation, IC50 (DC50) from curve fit, read-out: DC50(nM) H1975 # 28 DTC; for Dmax (%) H1975 # 28 DTC: maximum percentage of inhibition (degradation)
# In short: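 The test uses H1975 clonal lines carrying lentiviral mutant EGFR with endogenous copies removed, treated 16h at 37° C., 5% CO2. EGFR left in the lysate is quantified by HTRF, and DC50 is derived from an 8-dose curve starting at 10 uM final.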
# [3] = test system: EGFR Del19/C797S (H1975-clone #23); assay: EGFR degradation HTRF assay, H1975-clone #23 DC cells; details: 16h treatment; for H1975 #23 DC Dmax (%): maximum percentage of degradation; for DC50: H1975 #23 DC, read-out: H1975 #23 DC DC50
# Method: H1975-clone #28(Del19/T790M/C797S) and H1975-clone #23(Del19/C797S). EGFR-Del19/T790M/C797S and EGFR-Del19/C797S were stably expressed in H1975 cell lines by lentivirus-mediated over-expression, respectively. The EGFR over-expressed cells then underwent gene knockout, in which the EGFR targeting sgRNA was designed to only target the endogenous EGFR copies and preserve the exogenous EGFR copies. Followed by the gene knockout, the edited H1975 cells were seeded in 96 well plates at the concentration of 1 cell/well, cultured for about 2 weeks to allow single clones formation. The formed clones were screened by DNA sequencing and whole exon sequencing analysis for the desired edition. H1975-clone #28 and H1975-clone #23 were finally confirmed as homozygous Del19/T790M/C797S EGFR and Del19/C797S EGFR clones, respectively.
# BaF3 WT(wild type), BaF3-LTC(L858R/T790M/C797S) and BaF3-DTC(Del19/T790M/C797S) cells are treated with compounds diluted in 0.2% DMSO cell culture medium and incubate for 16h, 37° C., 5% CO2, H1975-#36, H1975-#28, H1975-#23 and HCC827 cells are treated with compounds diluted in 0.2% DMSO cell culture medium on day 2, incubate for 16h, 37° C., 5% CO2.the final concentriation of compounds in all assay is start with 10 uM, 5-fold dilution, total 8 doses were included.
# After 16h treatment, add HTRF lysis buffer to each well; seal the plate and incubate 1 hour at room temperature on a plate shaker; Once the cells are lysed, 16 μL of cell lysate are transferred to a PE 384-well HTRF detection plate; 4 μL of pre-mixed HTRF antibodies are added to each well; Cover the plate with a plate sealer, spin 1000 rpm for 1 min, Incubate overnight at room temperature; Read on BMG PheraStar with HTRF protocol (337 nm-665 nm-620 nm).
# The inhibition (degradation) percentage of the compound was calculated by the following equation: Inhibition percentage of Compound=100-100×(Signal-low control)/(High control-low control), wherein signal=each test compound group
# High control=Cell group with added DMSO and without compound, indicating microplate readings without EGFR degradation;
# Dmax is the maximum percentage of inhibition (degradation).
# The IC50 (DC50) value of a compound can be obtained by fitting the following equation
# Y=Bottom+(TOP−Bottom)/(1+((IC50/X)^hillslope))
# Wherein, X and Y are known values, and IC50, Hillslope, Top and Bottom are the parameters obtained by fitting with software. Y is the inhibition percentage (calculated from the equation), X is the concentration of the compound; IC50 is the concentration of the compound when the 50% inhibition is reached. The smaller the IC50 value is, the stronger the inhibitory ability of the compound is. Vice versa, the higher the IC50 value is, the weaker the inhibitory ability of the compound is; Hillslope represents the slope of the fitted curve, generally around 1*; Bottom represents the minimum value of the curve obtained by data fitting, which is generally 0%±20%; Top represents the maximum value of the curve obtained by data fitting, which is generally 100%±20%. The experimental data were fitted by calculating and analyzing with Dotmatics data analysis software.
# [4] = target: T2, EGFR L858R/C797S (BaF3 LC cells) (Homo sapiens, UniProt P00533, C797S/L858R); assay: EGFR degradation HTRF assay, BaF3 LC cells; details: BaF3 LC, 16h treatment; for DC50: read-out: BaF3 LC DC50
# T2 construct: expressed in transfected cells; host or cells: BaF3
# [5] = target: T3, EGFR (HCC827 cells) (Homo sapiens, UniProt P00533, DEL746-750); assay: EGFR degradation HTRF assay, HCC827 cells; details: HCC827, 16h treatment; for Dmax: maximum percentage of degradation
# T3 construct: endogenous in cells; host or cells: HCC827
# In short: (§1)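 BaF3 (WT, Del19/T790M/C797S) and HCC827 cells exposed 16 h at 37 °C, 5% CO2 to compounds in 0.2% DMSO medium, 8 doses from 10 uM top, 5-fold steps. Lysates read by HTRF (665/620 nm); degradation % vs DMSO control, DC50 from four-parameter fit, Dmax as maximal degradation.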
# [6] = test system: EGFR Del19/T790M/C797S (BaF3-DTC cells); assay: EGFR degradation HTRF assay, BaF3-DTC cells; details: 16h treatment; for DTC Dmax (%): maximum percentage of degradation; for DC50: read-out: DTC DC50
# In short: as §1
# [7] = target: T4, EGFR L858R/T790M (H1975-clone #36, homozygous) (Homo sapiens, UniProt P00533, L858R/T790M); assay: EGFR degradation HTRF assay, H1975-clone #36 cells; details: H1975 #36, 16h treatment; for Dmax: NCI-H1975, maximum percentage of degradation
# T4 construct: designed to specifically target WT EGFR but preserve the L858R/T790M copy; host or cells: H1975-clone #36
# In short: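 Eight-point, 5-fold series starting at 10 uM (0.2% DMSO) applied for 16 h, 37 °C, to a WT-EGFR-knockout H1975 clone carrying only L858R/T790M. Lysates read by HTRF overnight. Degradation percentage relative to DMSO control fitted for DC50, with Dmax as maximum degradation.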
# [8] = BaF3-LTC, 16h treatment, read-out: LTC DC50
# T2 sequence (P00533 25-1210 C797S/L858R): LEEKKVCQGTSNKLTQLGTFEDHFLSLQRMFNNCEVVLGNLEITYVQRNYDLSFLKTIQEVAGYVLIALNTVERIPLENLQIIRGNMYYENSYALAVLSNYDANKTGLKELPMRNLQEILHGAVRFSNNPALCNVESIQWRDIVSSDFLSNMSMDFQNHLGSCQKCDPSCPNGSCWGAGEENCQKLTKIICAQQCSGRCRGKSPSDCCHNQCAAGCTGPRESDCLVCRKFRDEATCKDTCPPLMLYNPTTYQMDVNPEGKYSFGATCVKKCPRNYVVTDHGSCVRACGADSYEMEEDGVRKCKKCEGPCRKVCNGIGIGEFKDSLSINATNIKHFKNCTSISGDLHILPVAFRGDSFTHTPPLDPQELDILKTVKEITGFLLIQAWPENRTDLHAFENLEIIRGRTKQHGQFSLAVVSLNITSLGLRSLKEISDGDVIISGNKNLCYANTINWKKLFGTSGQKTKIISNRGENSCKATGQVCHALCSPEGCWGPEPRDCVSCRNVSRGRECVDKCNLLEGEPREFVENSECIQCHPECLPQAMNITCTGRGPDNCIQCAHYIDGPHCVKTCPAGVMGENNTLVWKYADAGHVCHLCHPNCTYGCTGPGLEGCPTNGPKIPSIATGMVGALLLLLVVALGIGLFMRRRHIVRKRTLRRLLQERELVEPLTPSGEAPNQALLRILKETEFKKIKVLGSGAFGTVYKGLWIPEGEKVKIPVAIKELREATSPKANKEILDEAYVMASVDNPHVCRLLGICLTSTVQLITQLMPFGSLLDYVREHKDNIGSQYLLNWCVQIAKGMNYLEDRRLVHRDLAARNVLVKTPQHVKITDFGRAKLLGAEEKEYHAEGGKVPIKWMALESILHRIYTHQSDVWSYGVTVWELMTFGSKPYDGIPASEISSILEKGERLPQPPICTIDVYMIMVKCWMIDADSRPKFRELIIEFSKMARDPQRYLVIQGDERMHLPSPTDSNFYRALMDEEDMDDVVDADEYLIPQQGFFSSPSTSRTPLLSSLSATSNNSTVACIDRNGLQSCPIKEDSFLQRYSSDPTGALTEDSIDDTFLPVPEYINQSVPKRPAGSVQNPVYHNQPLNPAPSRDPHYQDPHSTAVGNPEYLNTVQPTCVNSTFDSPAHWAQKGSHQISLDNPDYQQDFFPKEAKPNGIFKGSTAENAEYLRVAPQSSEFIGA
# T3 sequence (P00533 with tags, fused parts or gaps DEL746-750): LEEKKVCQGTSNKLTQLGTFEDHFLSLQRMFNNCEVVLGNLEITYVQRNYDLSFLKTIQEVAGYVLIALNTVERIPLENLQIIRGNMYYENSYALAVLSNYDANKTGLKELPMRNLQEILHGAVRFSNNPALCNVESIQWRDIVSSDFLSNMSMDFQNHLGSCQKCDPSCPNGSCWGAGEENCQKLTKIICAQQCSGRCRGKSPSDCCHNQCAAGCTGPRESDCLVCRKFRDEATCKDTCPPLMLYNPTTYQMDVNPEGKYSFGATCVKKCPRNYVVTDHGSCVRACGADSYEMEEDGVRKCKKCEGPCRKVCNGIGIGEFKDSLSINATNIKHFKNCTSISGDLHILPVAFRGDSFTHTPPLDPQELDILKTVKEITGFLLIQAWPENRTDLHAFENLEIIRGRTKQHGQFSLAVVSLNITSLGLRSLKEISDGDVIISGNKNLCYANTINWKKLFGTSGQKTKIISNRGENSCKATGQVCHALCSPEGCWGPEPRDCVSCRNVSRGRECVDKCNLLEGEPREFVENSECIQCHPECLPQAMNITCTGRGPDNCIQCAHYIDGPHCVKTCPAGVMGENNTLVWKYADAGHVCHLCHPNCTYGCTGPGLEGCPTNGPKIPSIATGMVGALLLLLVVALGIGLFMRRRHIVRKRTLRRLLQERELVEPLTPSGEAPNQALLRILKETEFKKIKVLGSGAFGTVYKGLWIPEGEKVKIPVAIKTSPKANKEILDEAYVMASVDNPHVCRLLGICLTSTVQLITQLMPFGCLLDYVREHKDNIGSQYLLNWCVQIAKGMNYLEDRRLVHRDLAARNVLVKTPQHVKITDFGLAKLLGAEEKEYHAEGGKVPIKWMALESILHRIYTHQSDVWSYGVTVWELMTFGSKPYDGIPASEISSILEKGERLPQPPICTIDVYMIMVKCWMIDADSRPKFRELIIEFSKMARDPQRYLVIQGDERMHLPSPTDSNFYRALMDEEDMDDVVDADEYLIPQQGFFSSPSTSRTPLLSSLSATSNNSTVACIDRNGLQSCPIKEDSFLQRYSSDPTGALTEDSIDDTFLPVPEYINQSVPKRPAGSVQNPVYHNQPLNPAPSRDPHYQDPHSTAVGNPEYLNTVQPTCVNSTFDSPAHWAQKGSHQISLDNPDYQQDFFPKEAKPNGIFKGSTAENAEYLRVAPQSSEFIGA
# T1 sequence (P00533 25-1210 T790M/C797S/L858R): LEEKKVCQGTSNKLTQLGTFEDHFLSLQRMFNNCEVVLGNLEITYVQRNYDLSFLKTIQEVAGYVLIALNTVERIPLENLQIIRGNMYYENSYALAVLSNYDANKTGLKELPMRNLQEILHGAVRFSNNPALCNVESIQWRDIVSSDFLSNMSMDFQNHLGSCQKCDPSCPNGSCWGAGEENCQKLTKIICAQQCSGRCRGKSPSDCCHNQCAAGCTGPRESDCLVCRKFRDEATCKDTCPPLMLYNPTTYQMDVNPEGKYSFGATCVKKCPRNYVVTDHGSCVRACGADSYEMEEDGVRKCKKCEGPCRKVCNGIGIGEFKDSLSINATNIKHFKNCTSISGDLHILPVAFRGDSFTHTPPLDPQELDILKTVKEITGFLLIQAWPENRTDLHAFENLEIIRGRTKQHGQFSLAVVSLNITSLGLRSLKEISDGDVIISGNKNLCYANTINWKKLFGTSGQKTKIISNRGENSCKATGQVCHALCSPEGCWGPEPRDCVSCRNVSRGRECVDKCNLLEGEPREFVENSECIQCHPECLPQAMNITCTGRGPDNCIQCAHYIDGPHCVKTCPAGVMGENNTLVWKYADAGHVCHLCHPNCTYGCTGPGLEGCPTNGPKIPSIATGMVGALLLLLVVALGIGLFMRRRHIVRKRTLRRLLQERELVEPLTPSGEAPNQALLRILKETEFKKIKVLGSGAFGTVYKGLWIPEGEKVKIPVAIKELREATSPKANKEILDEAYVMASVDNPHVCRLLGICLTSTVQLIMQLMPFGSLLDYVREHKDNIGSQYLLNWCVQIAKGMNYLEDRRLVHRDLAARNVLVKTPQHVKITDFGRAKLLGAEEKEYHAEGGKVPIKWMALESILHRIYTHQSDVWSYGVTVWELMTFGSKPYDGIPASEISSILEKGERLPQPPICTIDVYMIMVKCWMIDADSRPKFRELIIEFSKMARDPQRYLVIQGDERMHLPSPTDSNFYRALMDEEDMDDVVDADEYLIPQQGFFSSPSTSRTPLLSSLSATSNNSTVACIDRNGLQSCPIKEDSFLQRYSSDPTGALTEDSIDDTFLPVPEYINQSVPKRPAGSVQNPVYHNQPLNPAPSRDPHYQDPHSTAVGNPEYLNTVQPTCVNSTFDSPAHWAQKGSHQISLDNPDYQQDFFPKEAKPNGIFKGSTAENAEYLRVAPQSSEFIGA
# T4 sequence (P00533 25-1210 T790M/L858R): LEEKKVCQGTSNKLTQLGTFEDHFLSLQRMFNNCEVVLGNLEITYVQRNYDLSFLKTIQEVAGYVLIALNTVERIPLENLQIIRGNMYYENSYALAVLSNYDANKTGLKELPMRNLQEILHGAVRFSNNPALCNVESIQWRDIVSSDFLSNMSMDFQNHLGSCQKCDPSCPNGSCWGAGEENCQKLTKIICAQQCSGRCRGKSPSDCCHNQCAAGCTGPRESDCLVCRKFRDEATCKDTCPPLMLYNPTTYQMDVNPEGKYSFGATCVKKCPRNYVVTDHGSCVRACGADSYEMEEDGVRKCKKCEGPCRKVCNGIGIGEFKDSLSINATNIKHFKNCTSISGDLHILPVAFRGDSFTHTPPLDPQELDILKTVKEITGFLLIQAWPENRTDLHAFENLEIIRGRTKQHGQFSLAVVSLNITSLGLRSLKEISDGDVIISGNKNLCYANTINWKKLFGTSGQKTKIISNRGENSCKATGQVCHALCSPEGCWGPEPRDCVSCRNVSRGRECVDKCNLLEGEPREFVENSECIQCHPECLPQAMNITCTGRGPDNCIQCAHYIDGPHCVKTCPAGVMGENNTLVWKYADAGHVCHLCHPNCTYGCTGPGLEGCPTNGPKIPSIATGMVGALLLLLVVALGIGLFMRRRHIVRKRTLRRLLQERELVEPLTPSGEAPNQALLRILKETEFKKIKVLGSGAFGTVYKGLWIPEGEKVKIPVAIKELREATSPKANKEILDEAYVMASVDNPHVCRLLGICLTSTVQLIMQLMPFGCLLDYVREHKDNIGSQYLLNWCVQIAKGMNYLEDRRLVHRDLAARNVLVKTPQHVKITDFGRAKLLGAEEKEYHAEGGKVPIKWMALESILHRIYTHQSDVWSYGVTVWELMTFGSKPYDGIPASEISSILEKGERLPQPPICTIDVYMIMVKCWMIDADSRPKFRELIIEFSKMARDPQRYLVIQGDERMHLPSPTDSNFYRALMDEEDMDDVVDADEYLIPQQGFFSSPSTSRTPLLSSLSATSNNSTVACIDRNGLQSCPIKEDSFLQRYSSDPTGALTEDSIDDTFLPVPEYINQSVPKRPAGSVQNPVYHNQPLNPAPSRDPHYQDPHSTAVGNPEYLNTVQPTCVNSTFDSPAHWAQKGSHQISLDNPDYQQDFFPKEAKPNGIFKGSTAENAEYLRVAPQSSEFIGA
Structure (SMILES),"DC50 ([1]; BaF3-LTC cells, EGFR degradation, IC50 (DC50) from curve fit, read-out: DC50(nM) BaF3-LTC)",DC50 [2],DC50 [3],DC50 [4],"Dmax ([4]; maximum percentage of degradation, read-out: BaF3 LC Dmax (%))",DC50 [5],Dmax [5],"Dmax ([1]; BaF3-LTC, 16h treatment)","DC50 [1, 8]",DC50 [6],DC50 [7],Dmax [7],Dmax (%) H1975 # 28 DTC [2],H1975 #23 DC Dmax (%) [3],DTC Dmax (%) [6]
"CCc1cc(Nc2ncc(Br)c(Nc3ccc4nc(C)ccc4c3P(C)(C)=O)n2)c(OC)cc1N1CCC(N2CCN(C(=O)[C@@H]3CCN(c4cc(F)c([C@H]5CCC(=O)NC5=O)c(F)c4)C3)CC2)CC1 [Example 750, (R)-3-(4-((R)-3-(4-(1-(4-((5-bromo-4-((5-(dimethylphosphoryl)-2-methylquinolin-6-yl)amino)pyrimidin-2-yl)amino)-2-ethyl-5-methoxyphenyl)piperidin-4-yl)piperazine-1-carbonyl)pyrrolidin-1-yl)-2,6-difluorophenyl)piperidine-2,6-dione]",–,1.17 nM,6.52 nM,26.1 nM,–,–,–,–,–,–,–,–,84.8%,74.02%,–
"CCc1cc(Nc2ncc(Br)c(Nc3ccc4nccnc4c3P(C)(C)=O)n2)c(OC)cc1N1CCC(N2CCN(C(=O)C3CCN(c4ccc5c(c4)C(=O)N(C4CCC(=O)NC4=O)C5=O)CC3)CC2)CC1 (stereo not shown) [Example 67, 5-(4-(4-(1-(4-((5-bromo-4-((5-(dimethylphosphoryl)quinoxalin-6-yl)amino)pyrimidin-2-yl)amino)-2-ethyl-5-methoxyphenyl)piperidin-4-yl)piperazine-1-carbonyl)piperidin-1-yl)-2-(2,6-dioxopiperidin-3-yl)isoindoline-1,3-dione]",–,–,–,–,–,6.2 nM,76.7%,87.9%,13.3 nM,4.71 nM,9.74 nM,74.8%,–,–,94.22%
"CCc1cc(Nc2ncc(Br)c(Nc3ccc4nccnc4c3P(C)(C)=O)n2)c(OC)cc1N1CCC(N2CCN(C3CC(c4ccc5c(c4)C(C)(C)C(=O)N5C4CCC(=O)NC4=O)C3)CC2)CC1 (stereo not shown) [Example 317, 3-(5-(3-(4-(1-(4-((5-bromo-4-((5-(dimethylphosphoryl)quinoxalin-6-yl)amino)pyrimidin-2-yl)amino)-2-ethyl-5-methoxyphenyl)piperidin-4-yl)piperazin-1-yl)cyclobutyl)-3,3-dimethyl-2-oxoindolin-1-yl)piperidine-2,6-dione]",–,–,–,–,–,0.779 nM,51.6%,94.1%,9.47 nM,5.17 nM,> 80 nM,47%,–,–,90.74%
"CCc1cc(Nc2ncc(Br)c(Nc3ccc4nccnc4c3P(C)(C)=O)n2)c(OC)cc1N1CCC(N2CCN(C(=O)[C@@H]3CCN(c4cc(F)c(C5CCC(=O)NC5=O)c(F)c4)C3)CC2)CC1 (stereo partly drawn) [Example 255, 3-(4-((R)-3-(4-(1-(4-((5-bromo-4-((5-(dimethylphosphoryl)quinoxalin-6-yl)amino)pyrimidin-2-yl)amino)-2-ethyl-5-methoxyphenyl)piperidin-4-yl)piperazine-1-carbonyl)pyrrolidin-1-yl)-2,6-difluorophenyl)piperidine-2,6-dione]",–,–,–,–,–,2.87 nM,78.5%,83.4%,17.3 nM,5.62 nM,3.27 nM,90.2%,–,–,96.33%

# Now from value to compound, other results behind:
"DC50 ([1]; BaF3-LTC cells, EGFR degradation, IC50 (DC50) from curve fit, read-out: DC50(nM) BaF3-LTC)",DC50 [2],DC50 [3],DC50 [4],"Dmax ([4]; maximum percentage of degradation, read-out: BaF3 LC Dmax (%))",DC50 [5],Dmax [5],"Dmax ([1]; BaF3-LTC, 16h treatment)","DC50 [1, 8]",DC50 [6],DC50 [7],Dmax [7],Structure (SMILES),Dmax (%) H1975 # 28 DTC [2],H1975 #23 DC Dmax (%) [3],DTC Dmax (%) [6]
4.34 nM,0.844 nM,2.2 nM,20.3 nM,–,–,–,–,–,–,–,–,"CCc1ncc2c(P(C)(C)=O)c(Nc3nc(Nc4cc(CC)c(N5CCC(N6CCN(CCc7cc(F)c([C@H]8CCC(=O)NC8=O)c(F)c7)CC6)CC5)cc4OC)ncc3Br)ccc2n1 [Example 589, (R)-3-(4-(2-(4-(1-(4-((5-bromo-4-((5-(dimethylphosphoryl)-2-ethylquinazolin-6-yl)amino)pyrimidin-2-yl)amino)-2-ethyl-5-methoxyphenyl)piperidin-4-yl)piperazin-1-yl)ethyl)-2,6-difluorophenyl)piperidine-2,6-dione]",86.23%,84.51%,–
–,–,1.11 nM,1.83 nM,94.8%,–,–,–,–,–,–,–,"CCc1ccc2c(P(C)(C)=O)c(Nc3nc(Nc4cc(CC)c(N5CCC(N6CCN(CCc7cccc8c7n(C)c(=O)n8C7CCC(=O)NC7=O)CC6)CC5)cc4OC)ncc3Br)ccc2n1 (stereo not shown) [Example 516, 3-(4-(2-(4-(1-(4-((5-bromo-4-((5-(dimethylphosphoryl)-2-ethylquinolin-6-yl)amino)pyrimidin-2-yl)amino)-2-ethyl-5-methoxyphenyl)piperidin-4-yl)piperazin-1-yl)ethyl)-3-methyl-2-oxo-2,3-dihydro-1H-benzo[d]imidazol-1-yl)piperidine-2,6-dione]",–,78.66%,–
–,1.37 nM,4.72 nM,19.7 nM,–,–,–,–,–,–,–,–,"CCc1ccc2c(P(C)(C)=O)c(Nc3nc(Nc4cc(CC)c(N5CCC(N6CCN(C(=O)[C@@H]7CCN(c8cc(F)c([C@H]9CCC(=O)NC9=O)c(F)c8)C7)CC6)CC5)cc4OC)ncc3Br)ccc2n1 [Example 489, (R)-3-(4-((R)-3-(4-(1-(4-((5-bromo-4-((5-(dimethylphosphoryl)-2-ethylquinolin-6-yl)amino)pyrimidin-2-yl)amino)-2-ethyl-5-methoxyphenyl)piperidin-4-yl)piperazine-1-carbonyl)pyrrolidin-1-yl)-2,6-difluorophenyl)piperidine-2,6-dione]",82.72%,59.94%,–
–,0.781 nM,3.54 nM,11.9 nM,–,–,–,–,–,–,–,–,"CCc1ccc2c(P(C)(C)=O)c(Nc3nc(Nc4cc(CC)c(N5CCC(N6CCN(CCc7cc(F)c([C@H]8CCC(=O)NC8=O)c(F)c7)CC6)CC5)cc4OC)ncc3Br)ccc2n1 [Example 484, (R)-3-(4-(2-(4-(1-(4-((5-bromo-4-((5-(dimethylphosphoryl)-2-ethylquinolin-6-yl)amino)pyrimidin-2-yl)amino)-2-ethyl-5-methoxyphenyl)piperidin-4-yl)piperazin-1-yl)ethyl)-2,6-difluorophenyl)piperidine-2,6-dione]",89.6%,82.99%,–
